The results in this text go back to US20100022559A1, “BISOXIMES AS FUNGICIDES” (BAYER CROPSCIENCE AG, priority 2006, published 2010).

The structures appear in SMILES notation.

The nature of the first data set: logP determination by HPLC on a reversed-phase column (C 18), EEC Directive 79/831 Annex V.A8. Conditions: [a] acidic range, pH 2.3, 0.1% aqueous phosphoric acid and acetonitrile. In kind it is physicochemical. Here is the method: The stated logP values were determined in accordance with EEC Directive 79/831 Annex V.A8 by HPLC (high performance liquid chromatography) on a reversed-phase column (C 18). Temperature: 43° C.
As for `Cc1cccc(C(=NOCCCON)C(C)C)n1` [XII-2], the logP was 1.05^[a].

Staying with this data set, now noted: method marked [a] in Table 1.
In the case of `Cc1cccc(C(=NOCC2(CON=C(c3cccc(C)n3)C3CC3)CC(c3ccccc3)=NO2)C2CC2)n1` (centres unmarked) [compound 650], the logP was 3.80^[a].

With `Cc1cccc(C(=NOCC2(CON=C(c3cccc(C)n3)C3CC3)CC(c3ccc(Cl)cc3)=NO2)C2CC2)n1` (centres unmarked) [compound 649], the logP is 4.53^[a].

For the molecule `CCc1cc(CC)nc(C(C)=NOCC(C)CON=C(C)c2cc(CC)cc(CC)n2)c1` (centres unmarked) [compound 574], the logP is 5.95^[a].

Regarding `Cc1cccnc1C(=NOCC(C)CON=C(c1ccccc1)c1ncccc1C)c1ccccc1` (centres unmarked) [compound 658], the logP was 4.54^[a].

The data set is the same for the next values; noted with them: method marked [b] in Table 1.
Regarding `CC(C)=CC1=NOC(CON=C(C)c2cc(C)cc(C)n2)(CON=C(C)c2cc(C)cc(C)n2)C1` (centres unmarked) [compound 647], the logP is 2.48^[b].

Regarding `CCCC(=NOCC1(CON=C(CCC)c2cccc(C)n2)CC(C=C(C)C)=NO1)c1cccc(C)n1` (centres unmarked) [compound 625], the logP is 5.97^[b].

With `CCCC(=NOCC1(CON=C(CCC)c2cccc(C)n2)CC(C)=NO1)c1cccc(C)n1` (centres unmarked) [compound 615], the logP was 4.56^[b].

`CC(=NOCC1(CON=C(C)c2cc(C)cc(C)n2)CC(C(C)(C)C)=NO1)c1cc(C)cc(C)n1` (centres unmarked) [compound 642]: the logP was 2.62^[b].

On to `CCC(=NOCC1(CON=C(CC)c2cccc(C)n2)CC(c2ccccc2)=NO1)c1cccc(C)n1` (centres unmarked) [compound 611], for which the logP is 5.08^[b].

On to `CC#Cc1cccc(C(C)=NOCC(C)CON=C(C)c2cccc(C#CC)n2)n1` (centres unmarked) [Compound 686], for which the logP is 5.65^[b].

With `CCC1=NOC(CON=C(C)c2cc(C)cc(C)n2)(CON=C(C)c2cc(C)cc(C)n2)C1` (centres unmarked) [Compound 639], the logP is 1.88^[b].

As to `CCCC(=NOCC1(CON=C(CCC)c2cccc(C)n2)CC(C(C)(C)C)=NO1)c1cccc(C)n1` (centres unmarked) [compound 620], the logP was 6.22^[b].

On to `CC(=NOCC1(CON=C(C)c2ccc(C)c(C)n2)CC(c2ccccc2)=NO1)c1ccc(C)c(C)n1` (centres unmarked) [compound 632], for which the logP is 3.61^[b].

With `CCC(=NOc1ncnc(ON=C(C)c2cccc(C)n2)c1C)c1ncccc1C` [compound 739], the logP is 2.18^[b].

Regarding `CC(=NOc1ncnc(ON=C(C)c2cccc(C)n2)c1Cl)c1cccc(C)n1` [compound 729], the logP is 3.31^[b].

For `CC(=NOCC1(CON=C(C)c2cccc(C)n2)CCCC1)c1cccc(C)n1` [Compound 587], the logP was 5.49^b].

Regarding `CC(=NOCc1cccc(CON=C(C)c2nc(C)c(C)s2)c1)c1nc(C)c(C)s1` [compound 732], the logP is 5.71^[b].

Still in this data set, the particulars now being: method marked [c] in Table 1.
With `CC(=NOCC1(CON=C(C)c2cccc(C)n2)CCCC1)c1cccc(C)n1` [Compound 587], the logP is 7.33^[c].

The data set is the same for the next values; noted with them: method marker [a] (footnote not shown); isomer A / isomer B / isomer mixture as noted in the cell.
As to `CCC(=NOCCCON=C(CC)c1cccc(C)n1)c1cccc(C)n1` [Compound 90], the logP was 4.44^[a].

Take `CC(=NOCCCON=C(C)c1ncccc1C)c1ncccc1C` (single isomer, unassigned) [compound 84]: the logP was 2.51^[a] (isomer B).

Take `Cc1cccc(C(=NOCC(C)CON=C(c2cccc(C)n2)C2CC2)C2CC2)n1` (single isomer, unassigned) [Compound 164]: the logP is given as 3.51^]a] (isomer B).

As for `Cc1cccnc1C(=NOCC(C)CON=C(c1ncccc1C)C(C)C)C(C)C` (mixture of isomers) [compound 103], the logP is 4.28^[a].

Take `CC(=NOCC(C)CON=C(C)c1cccc(C)n1)c1cccc(C)n1` (centres unmarked) [Compound 1]: the logP was 2.31^[a].

For the molecule `CC(=NOCC(C)CON=C(C)c1cccc(C(F)(F)F)n1)c1cccc(C(F)(F)F)n1` (centres unmarked) [Compound 169], the logP was 6.41^[a].

Regarding `CC(=NOCCCON=C(C)c1nc(C)cs1)c1cccc(C)n1` (mixture of isomers) [Compound 16], the logP was 3.35^[a].

As to `Cc1cccc(C(=NOCC(C)CON=C(c2cccc(C)n2)C(C)C)C(C)C)n1` (centres unmarked) [compound 138], the logP is recorded as 6.22^a].

As for `CCC(=NOCC(C)CON=C(CC)c1cccc(C)n1)c1cccc(C)n1` (centres unmarked) [Compound 116], the logP is 5.40^[a].

Consider `CCc1cccc(C(C)=NOCCCON=C(C)c2cccc(CC)n2)n1` [Compound 180], for which the logP was 5.43^[a].

The data set is the same for the next values; noted with them: method marker [b]; isomer A / isomer B / isomer mixture as noted in the cell.
Turning to `C=C(CON=C(C)c1cccc(C)n1)CON=C(N)c1nc(C)c(C(C)CC)c(C2CC2)n1` (centres unmarked) [Compound 244], the logP is 3.99^[b].

As for `CC(=NOCCCON=C(C)c1ncc(Cl)cc1Cl)c1ncc(Cl)cc1Cl` [compound 56], the logP is 5.78^[b].

`CCC(=NOCCCON=C(C)c1cccc(C)n1)c1ncccc1C` [compound 156]: the logP is 3.28^[b].

Consider `C=C(CON=C(C)c1cccc(C)n1)CON=C(N)c1nc(C)cc(OC)n1` [Compound 186], for which the logP was 2.11^[b].

As for `CC(=NOCON=C(C)c1nc(C)c(C)s1)c1nc(C)c(C)s1` [compound 126], the logP was 4.46^[b].

With `CC(=NOCCC(C)CCON=C(C)c1cccc(C)n1)c1cccc(C)n1` (centres unmarked) [Compound 75], the logP is 4.38^[b].

For the molecule `COCc1nc(/C(N)=N/OCO/N=C(\N)c2nc(COC)c(C)c(COC)n2)nc(COC)c1C` [compound 40], the logP is 1.35^[b].

As for `C=C(CON=C(C)c1cccc(C)n1)CON=C(C)c1ncc(C(F)(F)F)cc1Cl` (single isomer, unassigned) [compound 135], the logP was 4.95^[b] (isomer B).

For `C=C(CON=C(C)c1cccc(C)n1)CON=C(C)c1cccc(C)n1` [Compound 9], the logP was 3.33^[b].

With `CC(=NOCCCCCCCCCCON=C(C)c1cccc(C)n1)c1cccc(C)n1` [compound 74], the logP was 7.36^[b].

As for `C=C(CON=C(C)c1nc(C)cc(C)n1)CON=C(C)c1nc(C)cc(C)n1` [compound 146], the logP was 2.91^[b].

`C=C(CON=C(C)c1cccc(C)n1)CON=C(N)c1ccc(C)n1C` [compound 199]: the logP was 2.23^[b].

As for `C=C(CON=C(C)c1cccc(C)n1)CON=C(N)c1nc(C)c(Cl)c(C)n1` [compound 184], the logP was 2.61^[b].

The data set is the same for the next values; noted with them: method marker [c] (footnote not shown).
Consider `CC(=NOCC(C)CON=C(C)c1cccc(C)n1)c1cccc(C)n1` (centres unmarked) [Compound 1], for which the logP was 5.44^[c].

In the case of `CC(=NOCCCON=C(C)c1nc(C)cs1)c1cccc(C)n1` (mixture of isomers) [Compound 16], the logP is 4.47^[c].

The same data set, now with this note: reversed-phase HPLC column (C 18); HCO2H; HPLC reversed-phase column (C 18), 43° C.; read-out: logP (HCO2H).
Turning to `CC(CON1C(=O)c2ccccc2C1=O)CON1C(=O)c2ccccc2C1=O` [IX-1, 2,2′-[(2-methylpropane-1,3-diyl)bis(oxy)]bis(1H-isoindole-1,3(2H)-dione)], the chromatographic logP came out at 2.87.

The same data set, now with this note: value marked [a].
With `CC(=NOC(=O)NCCCC(C)CNC(=O)ON=C(C)c1cc(C)cc(C)n1)c1cc(C)cc(C)n1` (centres unmarked) [compound 862], the logP is 2.06^[a].

Consider `CCSC(=NOCC(C)CON=C(SCC)c1cccc(C)n1)c1cccc(C)n1` (centres unmarked) [Compound 820], for which the logP is 4.35^[a].

Turning to `Cc1cccc(C(=NOCC(C)(C)CON=C(c2cccc(C)n2)C2CC2)C2CC2)n1` (single isomer, unassigned) [compound 282], the logP is 3.75^[a] (isomer A).

Take `Cc1cccc(C(=NOCC(C)(C)CON=C(c2cccc(C)n2)C2CC2)C2CC2)n1` (mixture of isomers) [Compound 281]: the logP is 4.04^[a].

In the case of `CC(=NOCC(C)(C)CON=C(C)c1cc(C)cc(C)n1)c1cc(C)cc(C)n1` [Compound 276], the logP was 2.54^[a].

Staying with this data set, now noted: value marked [b].
With `CC(=NOCC(C)CON=C(C)c1cccc(CC(C)C)n1)c1cccc(C)n1` (centres unmarked) [Compound 423], the logP was 6.51^[b].

Turning to `CC(=NOCC(C)(C)CON=C(C)c1cccc(C)n1)c1cccc(C(F)(F)F)c1` [compound 410], the logP is 6.16^[b].

As to `CC(=NOc1nc(Cl)nc(ON=C(C)c2cccc(C)n2)c1Cl)c1cccc(C)n1` (single isomer, unassigned) [compound 780], the logP is 4.22^[b].

`CC(=NOCC(C)(C)CON=C(C)c1cccc(C)n1)c1ccc2c(c1)CC(C)O2` (centres unmarked) [compound 482]: the logP was 5.65^[b].

For `CCC(=NOCC(C)CON=C(C)c1cccc(C)n1)c1cccc(C)n1` (centres unmarked) [Compound 428], the logP is 4.51^[b].

Consider `CCc1cccc(C(C)=NOCCCCON=C(C)c2cccc(C)n2)n1` [compound 329], for which the logP is 4.72^[b].

Regarding `CC(=NOCC(CON=C(C)c1ccc(C)c(C)n1)C(C)(C)C)c1ccc(C)c(C)n1` (centres unmarked) [Compound 317], the logP was 4.91^[b].

For `C=C(CON=C(C)c1cccc(C)n1)CON=C(c1ccccc1)c1cccc(C)n1` [compound 357], the logP was 3.65^[b].

`CCCC(=NOCC(C)CON=C(C)c1cccc(C)n1)c1cccc(C)n1` (centres unmarked) [Compound 427]: the logP was 5.31^[b].

`CC(=NOCC1(CON=C(C)c2cccc(C)n2)CCC1)c1cccc(C)n1` [Compound 289]: the logP is 4.77^[b].

As to `C=C(CON=C(C)c1cc(C)c(C)nn1)CON=C(C)c1cc(C)c(C)nn1` [compound 284], the logP is 2.33^[b].

On to `CCc1cccc(C(C)=NOCC(C)(C)CON=C(C)c2cccc(C)n2)n1` [Compound 370], for which the logP is 5.78^[b].

In the case of `COc1ccc(C(C)=NOCCCCON=C(C)c2cccc(C)n2)cc1OC` [compound 380], the logP was 3.85^[b].

`CCC(C)(CON=C(C)c1cc(C)cc(C)n1)CON=C(C)c1cc(C)cc(C)n1` (centres unmarked) [Compound 794]: the logP was 3.91^[b].

In the case of `CC(=NOCCCCON=C(C)c1cncc(C)n1)c1cccc(C)n1` [compound 453], the logP was 1.88^[b].

On to `CC(=NOCC(C)CON=C(C)c1cccc(Cc2ccccc2)n1)c1cccc(C)n1` (centres unmarked) [Compound 420], for which the logP was 6.09^[b].

For `CC(=NOCC(CON=C(C)c1ccc(C)c(C)n1)c1ccccc1)c1ccc(C)c(C)n1` (centres unmarked) [Compound 318], the logP was 4.02^[b].

Still in this data set, the particulars now being: value marked [c].
For the molecule `CC(=NOc1nc(Cl)nc(ON=C(C)c2cccc(C)n2)c1Cl)c1cccc(C)n1` (single isomer, unassigned) [compound 780], the logP is 4.88^[c].

With `CC(=NOCC(CON=C(C)c1ccc(C)c(C)n1)C(C)(C)C)c1ccc(C)c(C)n1` (centres unmarked) [Compound 317], the logP was 7.36^[c].

On to `CCC(C)(CON=C(C)c1cc(C)cc(C)n1)CON=C(C)c1cc(C)cc(C)n1` (centres unmarked) [Compound 794], for which the logP was 7.18^[c].

For the molecule `CC(=NOCC(CON=C(C)c1ccc(C)c(C)n1)c1ccccc1)c1ccc(C)c(C)n1` (centres unmarked) [Compound 318], the logP is 6.45^[c].
